One experiment deals with Bcl-xL (Homo sapiens, UniProt Q07817). Briefly: TR-FRET binding assay, competition with F-Bak for Bcl-xL. The note with it: competition with F-Bak probe, GST-Bcl-xL. On the procedure: Determination of the utility of compounds having Formula (I) as binders to and inhibitors of anti-apoptotic Bcl-xL proteins was performed using the Time Resolved-Fluorescence Resonance Energy Transfer (TR-FRET) Assay. Tb-anti-GST antibody was purchased from Invitrogen (Catalog No. PV4216).
The measurement of competition of compounds of the invention with F-Bak for a Bcl-2 family protein (Bcl-xL) binding site using a Time Resolved Fluorescence Resonance Energy Transfer (TR-FRET) binding assay:
Test compounds were serially diluted in DMSO starting at 50 µM (2× starting concentration; 10% DMSO) and 10 μL transferred into a 384-well plate.
The samples are then mixed on a shaker for 1 minute then incubated for an additional 2 hours at room temperature. For each assay plate, a probe/antibody and protein/antibody/probe mixture were included as a negative and a positive control, respectively. Fluorescence was measured on the ENVISION plate reader (Perkin Elmer) using a 340/35 nm excitation filter and 520/525 (F-Bak) and 495/510 nm ([…]) emission filters. Dissociation constants (Ki) were determined using Wang's equation (Wang, Z. X. An exact mathematical expression for describing competitive binding of two different ligands to a protein molecule. FEBS Lett. 1995 360:111-114). The TR-FRET assay can be performed in the presence of varying concentrations of human serum (HS) or fetal bovine serum (FBS).
(In general: TR-FRET usually uses a lanthanide donor and a delayed reading to cut background.)

Experiment [1] has as its target mouse FL5.12 cells transfected with Bcl-xL (Homo sapiens, UniProt Q07817). Briefly: FL5.12 cellular assay (cell viability, CellTiter-Glo). The experiment is classed as cell-based. As to conditions: IL-3-depleted, 3% FBS assay media, 24 hours; read-out: FL5.12 Bcl-xL, −IL3, EC50. From the text:
Individual determinations were the result of duplicate values.
Background: Cellular ATP, detected with luciferase, serves as a proxy for viable cell number.

As usually defined, the Ki is the equilibrium dissociation constant of an inhibitor or competing ligand from its target. High values mean lower affinity, low ones higher affinity. What is called EC50 is the concentration giving half of the maximal effect.

Structures are written as SMILES. Bounds are passed on as bounds.

Bcl-xL, sequence (Q07817 whole entry): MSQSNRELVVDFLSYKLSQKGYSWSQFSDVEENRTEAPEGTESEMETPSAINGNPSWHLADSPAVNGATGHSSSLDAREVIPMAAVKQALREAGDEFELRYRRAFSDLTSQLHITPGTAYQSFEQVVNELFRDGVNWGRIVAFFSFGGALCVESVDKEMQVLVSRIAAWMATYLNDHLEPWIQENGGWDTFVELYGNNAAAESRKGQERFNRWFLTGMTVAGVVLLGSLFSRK
mouse FL5.12 cells transfected with Bcl-xL, sequence (Q07817 whole entry, change not shown): as the sequence (Q07817 whole entry) above

Molecule `Cc1nn(CC23CC4CC(CC(C4)C2)C3)c(C)c1-c1ccc(N2CCc3cccc(C(=O)Nc4nc5ccccc5s4)c3C2)nc1C(=O)O` [Example 2, 6-[8-(1,3-benzothiazol-2-ylcarbamoyl)-3,4-dihydroisoquinolin-2(1H)-yl]-3-[3,5-dimethyl-1-(tricyclo[3.3.1.1^3,7]dec-1-ylmethyl)-1H-pyrazol-4-yl]pyridine-2-carboxylic acid] registered a Ki on Bcl-xL of less than 0.1 nM. In addition, the EC50 in experiment [1] is less than 1 nM.

At Bcl-xL, `CC12CC3CC(C)(C1)CC(Cn1cc(-c4ccc(N5CCc6cccc(C(=O)Nc7nc8ccccc8s7)c6C5)nc4C(=O)O)cn1)(C3)C2` [Example 5, 6-[8-(1,3-benzothiazol-2-ylcarbamoyl)-3,4-dihydroisoquinolin-2(1H)-yl]-3-(1-{[3,5-dimethyltricyclo[3.3.1.1^3,7]dec-1-yl]methyl}-1H-pyrazol-4-yl)pyridine-2-carboxylic acid] gave a Ki of less than 0.1 nM. Further, in experiment [1], the EC50 was found to be 2 nM. In the same order, the values of `CC12CC3(C)CC(C)(C1)CC(Cn1cc(-c4ccc(N5CCc6cccc(C(=O)Nc7nc8ccccc8s7)c6C5)nc4C(=O)O)cn1)(C2)C3` [Example 9, 6-[8-(1,3-benzothiazol-2-ylcarbamoyl)-3,4-dihydroisoquinolin-2(1H)-yl]-3-{1-[(3,5,7-trimethyltricyclo[3.3.1.1^3,7]dec-1-yl)methyl]-1H-pyrazol-4-yl}pyridine-2-carboxylic acid] are 0.2 nM and 3 nM. On to `Cc1c(-c2ccc(N3Cc4c(C(=O)Nc5nc6ccccc6s5)cccc4C(C)(C)C3)nc2C(=O)O)cnn1CC12CC3CC(CC(C3)C1)C2` [Example 14, 6-[8-(1,3-benzothiazol-2-ylcarbamoyl)-4,4-dimethyl-3,4-dihydroisoquinolin-2(1H)-yl]-3-[5-methyl-1-(tricyclo[3.3.1.1^3,7]dec-1-ylmethyl)-1H-pyrazol-4-yl]pyridine-2-carboxylic acid], for which the Ki on Bcl-xL came to 0.2 nM. In addition, the EC50 in experiment [1] is less than 1 nM. Take `Cc1c(-c2ccc(N3CCc4cccc(C(=O)Nc5nc6ccccc6s5)c4C3)nc2C(=O)NS(C)(=O)=O)cnn1CC12CC3CC(CC(C3)C1)C2` [Example 17, N-(1,3-benzothiazol-2-yl)-2-{6-[(methylsulfonyl)carbamoyl]-5-[5-methyl-1-(tricyclo[3.3.1.1^3,7]dec-1-ylmethyl)-1H-pyrazol-4-yl]pyridin-2-yl}-1,2,3,4-tetrahydroisoquinoline-8-carboxamide]: the Ki on Bcl-xL is less than 0.1 nM. Also, the EC50 in experiment [1] amounted to 1 nM. In the same order, the values of `Cc1c(-c2ccc(N3CCc4cccc(C(=O)Nc5nc6ccccc6s5)c4C3)nc2C(=O)NS(=O)(=O)C2CC2)cnn1CC12CC3CC(CC(C3)C1)C2` [Example 18, N-(1,3-benzothiazol-2-yl)-2-{6-[(cyclopropylsulfonyl)carbamoyl]-5-[5-methyl-1-(tricyclo[3.3.1.1^3,7]dec-1-ylmethyl)-1H-pyrazol-4-yl]pyridin-2-yl}-1,2,3,4-tetrahydroisoquinoline-8-carboxamide] are less than 0.1 nM and 1 nM. Consider `Cc1c(-c2ccc(N3CCc4cccc(C(=O)Nc5nc6ccccc6s5)c4C3)nc2-c2nn[nH]n2)cnn1CC12CC3CC(CC(C3)C1)C2` [Example 19, N-(1,3-benzothiazol-2-yl)-2-{5-[5-methyl-1-(tricyclo[3.3.1.1^3,7]dec-1-ylmethyl)-1H-pyrazol-4-yl]-6-(2H-tetrazol-5-yl)pyridin-2-yl}-1,2,3,4-tetrahydroisoquinoline-8-carboxamide], for which the Ki at Bcl-xL came to 0.1 nM. Also, in experiment [1], the EC50 turned out to be 3 nM. For `Cc1cc(OCC23CC4CC(CC(C4)C2)C3)ccc1-c1ccc(N2CCc3cccc(C(=O)Nc4nc5ccccc5s4)c3C2)nc1C(=O)O` [Example 20, 6-[8-(1,3-benzothiazol-2-ylcarbamoyl)-3,4-dihydroisoquinolin-2(1H)-yl]-3-{2-methyl-4-[tricyclo[3.3.1.1^3,7]dec-1-ylmethoxy]phenyl}pyridine-2-carboxylic acid], in that order: 4 nM and greater than 1000 nM. In the same order, the values of `O=C(Nc1nc2ccccc2s1)c1cccc2c1CN(c1ccc(-c3cccc(OCC45CC6CC(CC(C6)C4)C5)c3)c(C(=O)O)n1)CC2` [Example 22, 6-[8-(1,3-benzothiazol-2-ylcarbamoyl)-3,4-dihydroisoquinolin-2(1H)-yl]-3-{3-[tricyclo[3.3.1.1^3,7]dec-1-ylmethoxy]phenyl}pyridine-2-carboxylic acid] are 1 nM and greater than 1000 nM.

At Bcl-xL, `Cc1c(-c2ccc(N3CCc4cccc(C(=O)Nc5nc6cccnc6s5)c4C3)nc2C(=O)O)cnn1CC12CC3CC(CC(C3)C1)C2` [Example 24, 3-[5-methyl-1-(tricyclo[3.3.1.1^3,7]dec-1-ylmethyl)-1H-pyrazol-4-yl]-6-[8-([1,3]thiazolo[5,4-b]pyridin-2-ylcarbamoyl)-3,4-dihydroisoquinolin-2(1H)-yl]pyridine-2-carboxylic acid] had a Ki of less than 0.1 nM. In experiment [1], the EC50 is less than 1 nM.

The molecule `O=C(Nc1nc2ccccc2s1)c1cccc2c1CN(c1ccc(-c3ccnc(OCC45CC6CC(CC(C6)C4)C5)c3)c(C(=O)O)n1)CC2` [Example 25, 6-[8-(1,3-benzothiazol-2-ylcarbamoyl)-3,4-dihydroisoquinolin-2(1H)-yl]-2′-(tricyclo[3.3.1.1^3,7]dec-1-ylmethoxy)-3,4′-bipyridine-2-carboxylic acid] yielded a Ki at Bcl-xL of 0.8 nM. In addition, the EC50 in experiment [1] was greater than 1000 nM.

The molecule `Cc1c(OC23CC4CC(CC(C4)C2)C3)cccc1-c1ccc(N2CCc3cccc(C(=O)Nc4nc5ccccc5s4)c3C2)nc1C(=O)O` [Example 28, 6-[8-(1,3-benzothiazol-2-ylcarbamoyl)-3,4-dihydroisoquinolin-2(1H)-yl]-3-{2-methyl-3-[tricyclo[3.3.1.1^3,7]dec-1-yloxy]phenyl}pyridine-2-carboxylic acid] showed a Ki at Bcl-xL of 0.5 nM. Besides, the EC50 in experiment [1] was found to be 22 nM. For `N#Cc1c(-c2ccc(N3CCc4cccc(C(=O)Nc5nc6ccccc6s5)c4C3)nc2C(=O)O)cnn1CC12CC3CC(CC(C3)C1)C2` [Example 29, 6-[8-(1,3-benzothiazol-2-ylcarbamoyl)-3,4-dihydroisoquinolin-2(1H)-yl]-3-{5-cyano-1-[tricyclo[3.3.1.1^3,7]dec-1-ylmethyl]-1H-pyrazol-4-yl}pyridine-2-carboxylic acid], in that order: less than 0.1 nM and 3 nM.

For `Cc1c(-c2ccc(N3CCc4cccc(C(=O)Nc5nc6cnccc6s5)c4C3)nc2C(=O)O)cnn1CC12CC3CC(CC(C3)C1)C2` [Example 31, 3-[5-methyl-1-(tricyclo[3.3.1.1^3,7]dec-1-ylmethyl)-1H-pyrazol-4-yl]-6-[8-([1,3]thiazolo[4,5-c]pyridin-2-ylcarbamoyl)-3,4-dihydroisoquinolin-2(1H)-yl]pyridine-2-carboxylic acid], at Bcl-xL, the Ki is less than 0.1 nM. Further, the EC50 in experiment [1] was 5 nM. `Cc1c(-c2ccc(N3CCc4cccc(C(=O)Nc5nc6ccccc6s5)c4C3)nc2C(=O)O)cnn1CC12CC3CC(C)(CC(C)(C3)C1)C2` [Example 32, 6-[8-(1,3-benzothiazol-2-ylcarbamoyl)-3,4-dihydroisoquinolin-2(1H)-yl]-3-(1-{[3,5-dimethyltricyclo[3.3.1.1^3,7]dec-1-yl]methyl}-5-methyl-1H-pyrazol-4-yl)pyridine-2-carboxylic acid]: the Ki on Bcl-xL is less than 0.1 nM. Also, the EC50 in experiment [1] was 1 nM.

`O=C(Nc1nc2ccccc2s1)c1cccc2c1CN(c1ccc(-c3cnn(CC45CC6CC(C4)CC(N4CCS(=O)(=O)CC4)(C6)C5)c3)c(C(=O)O)n1)CC2` [Example 33, 6-[8-(1,3-benzothiazol-2-ylcarbamoyl)-3,4-dihydroisoquinolin-2(1H)-yl]-3-(1-{[3-(1,1-dioxidothiomorpholin-4-yl)tricyclo[3.3.1.1^3,7]dec-1-yl]methyl}-1H-pyrazol-4-yl)pyridine-2-carboxylic acid] returned a Ki at Bcl-xL of 0.1 nM. In addition, in experiment [1], the EC50 was greater than 1000 nM. `CNCCOCCOCCOC12CC3CC(CC(Cn4ncc(-c5ccc(N6CCc7cccc(C(=O)Nc8nc9ccccc9s8)c7C6)nc5C(=O)O)c4C)(C3)C1)C2` [Example 83, 6-[8-(1,3-benzothiazol-2-ylcarbamoyl)-3,4-dihydroisoquinolin-2(1H)-yl]-3-(5-methyl-1-{[3-(2-{2-[2-(methylamino)ethoxy]ethoxy}ethoxy)tricyclo[3.3.1.1^3,7]dec-1-yl]methyl}-1H-pyrazol-4-yl)pyridine-2-carboxylic acid]: the Ki on Bcl-xL was less than 0.1 nM. Same read-out and setting: the same measure for `O=C(Nc1nc2ccccc2s1)c1cccc2c1CN(c1ccc(-c3ccc(=O)n(CC45CC6CC(CC(C6)C4)C5)c3)c(C(=O)O)n1)CC2` [Example 85, 6-[8-(1,3-benzothiazol-2-ylcarbamoyl)-3,4-dihydroisoquinolin-2(1H)-yl]-6′-oxo-1′-(tricyclo[3.3.1.1^3,7]dec-1-ylmethyl)-1′,6′-dihydro-3,3′-bipyridine-2-carboxylic acid]: less than 0.1 nM.

The values are drawn from US11786519B2, “Apoptosis-inducing agents for the treatment of cancer and immune and autoimmune diseases” (AbbVie Inc., priority 2011, dated 2023).
